This experiment concerns the target (recombinant) catalytic domain of human Bub1 (amino acids 704-1085) (Homo sapiens (Human), UniProt O43683). As to the kind of experiment: Bub1 kinase assay (TR-FRET). Format: biochemical. The settings on record: ATP 10 μM, peptide substrate 1 μM, 60 min at 22° C., read-out: Inhibition of Bub1 kinase IC50. The text has this: Bub1-inhibitory activities of compounds described in the present invention were quantified using a time-resolved fluorescence energy transfer (TR-FRET) kinase assay which measures phosphorylation of the synthetic peptide Biotin-Ahx-VLLPKKSFAEPG (SEQ ID No. 1) (C-terminus in amide form), purchased from e.g. Biosyntan (Berlin, Germany) by the (recombinant) catalytic domain of human Bub1 (amino acids 704-1085), expressed in Hi5 insect cells with an N-terminal His6-tag and purified by affinity-(Ni-NTA) and size exclusion chromatography.
In a typical assay 11 different concentrations of each compound (0.1 nM, 0.33 nM, 1.1 nM, 3.8 nM, 13 nM, 44 nM, 0.15 μM, 0.51 μM, 1.7 μM, 5.9 μM and 20 μM) were tested in duplicate within the same microtiter plate. To this end, 100-fold concentrated compound solutions (in DMSO) were previously prepared by serial dilution (1:3.4) of 2 mM stocks in a clear low volume 384-well source microtiter plate (Greiner Bio-One, Frickenhausen, Germany), from which 50 nl of compounds were transferred into a black low volume test microtiter plate from the same supplier. Subsequently, 2 μL of Bub1 (the final concentration of Bub1 was adjusted depending on the activity of the enzyme lot in order to be within the linear dynamic range of the assay: typically ˜200 ng/mL were used) in aqueous assay buffer [50 mM Tris/HCl pH 7.5, 10 mM magnesium chloride (MgCl2), 200 mM potassium chloride (KCl), 1.0 mM dithiothreitol (DTT), 0.1 mM sodium ortho-vanadate, 1% (v/v) glycerol, 0.01% (w/v) bovine serum albumine (BSA), 0.005% (v/v) Trition X-100 (Sigma), 1× Complete EDTA-free protease inhibitor mixture (Roche)] were added to the compounds in the test plate and the mixture was incubated for 15 min at 22° C. to allow pre-equilibration of the putative enzyme-inhibitor complexes before the start of the kinase reaction, which was initiated by the addition of 3 μL 1.67-fold concentrated solution (in assay buffer) of adenosine-tri-phosphate (ATP, 10 μM final concentration) and peptide substrate (1 μM final concentration). The resulting mixture (5 μL final volume) was incubated at 22° C. during 60 min. and the reaction w as stopped by the addition of 5 μL of an aqueous EDTA-solution (50 mM EDTA, in 100 mM HEPES pH 7.5 and 0.2% (w/v) bovine serum albumin) which also contained the TR-FRET detection reagents (0.2 μM streptavidin-XL665 [Cisbio Bioassays, Codolet, France] and 1 nM anti-phosho-Serine antibody [Merck Millipore, cat. #35-002] and 0.4 nM LANCE EU-W1024 labeled anti-mouse IgG antibody [Perkin-Elmer, product no. AD0077, alternatively a Terbium-cryptate-labeled anti-mouse IgG antibody from Cisbio Bioassays can be used]). The stopped reaction mixture was further incubated 1 h at 22° C. in order to allow the formation of complexes between peptides and detection reagents. Subsequently, the amount of product was evaluated by measurement of the resonance energy transfer from the Eu-chelate-antibody complex recognizing the Phosphoserine residue to the streptavidin-XL665 bound to the biotin moiety of the peptide. To this end, the fluorescence emissions at 620 nm and 665 nm after excitation at 330-350 nm were measured in a TR-FRET plate reader, e.g. a Rubystar or Pherastar (both from BMG Labtechnologies, Offenburg, Germany) or a Viewlux (Perkin-Elmer) and the ratio of the emissions (665 nm/622 nm) was taken as indicator for the amount of phosphorylated substrate. The data were normalised using two sets of control wells for high−(=enzyme reaction without inhibitor=0%=Minimum inhibition) and low−(=all assay components without enzyme=100%=Maximum inhibition) Bub1 activity. IC50 values were calculated by fitting the normalized inhibition data to a 4-parameter logistic equation (Minimum, Maximum, IC50, Hill; Y=Max+(Min−Max)/(1+(X/IC50)Hill)).
Sequence of (recombinant) catalytic domain of human Bub1 (amino acids 704-1085) (O43683 704-1085): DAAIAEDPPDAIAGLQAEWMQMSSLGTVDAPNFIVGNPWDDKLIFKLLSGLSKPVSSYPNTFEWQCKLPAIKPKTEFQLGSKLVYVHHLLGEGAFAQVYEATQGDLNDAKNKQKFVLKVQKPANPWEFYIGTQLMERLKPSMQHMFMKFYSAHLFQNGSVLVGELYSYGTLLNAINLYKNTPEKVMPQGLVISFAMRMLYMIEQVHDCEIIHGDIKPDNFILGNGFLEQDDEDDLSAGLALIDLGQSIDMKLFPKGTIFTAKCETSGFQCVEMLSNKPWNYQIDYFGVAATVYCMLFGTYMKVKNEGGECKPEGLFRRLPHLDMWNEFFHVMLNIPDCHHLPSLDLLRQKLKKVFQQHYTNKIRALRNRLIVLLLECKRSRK
As for “1-Fluoro-N-4-[[(4aR,5aR) or (4aS,5aS)]-5a-methyl-4-oxo-3-(phenylamino)-1,4,4a,5,5a,6-hexahydrocyclopropa[f]indol-2-yl]pyridin-2-ylcyclopropanecarboxamide [Example 31]”, the IC50 turned out to be 52 nM.
To “1-Fluoro-N-4-[[(4aS,5aS) or (4aR,5aR)]-5a-methyl-4-oxo-3-(phenylamino)-1,4,4a,5,5a,6-hexahydrocyclopropa[f]indol-2-yl]pyridin-2-ylcyclopropanecarboxamide [Example 30]” belongs 17 nM; to “1-Methyl-N-4-[[(4aR,5aR) or (4aS,5aS)]-5a-methyl-4-oxo-3-(phenylamino)-1,4,4a,5,5a,6-hexahydrocyclopropa[f]indol-2-yl]pyridin-2-yl-1H-pyrazole-5-carboxamide [Example 43]”, 22 nM.
In the case of “1-Methyl-N-4-[[(4aS,5aS) or (4aR,5aR)]-5a-methyl-4-oxo-3-(phenylamino)-1,4,4a,5,5a,6-hexahydrocyclopropa[f]indol-2-yl]pyridin-2-yl-1H-pyrazole-5-carboxamide [Example 42]”, the half-maximal inhibitory concentration (IC50) was found to be 11 nM.
The figure for “2-Fluoro-2-methyl-N-4-[[(4aR,5aR) or (4aS,5aS)]-5a-methyl-4-oxo-3-(phenylamino)-1,4,4a,5,5a,6-hexahydrocyclopropa[f]indol-2-yl]pyridin-2-ylpropanamide [Example 41]” is 53 nM; for “2-Fluoro-2-methyl-N-4-[[(4aS,5aS) or (4aR,5aR)]-5a-methyl-4-oxo-3-(phenylamino)-1,4,4a,5,5a,6-hexahydrocyclopropa[f]indol-2-yl]pyridin-2-ylpropanamide [Example 40]” it is 22 nM; for `CC1CCC(=O)c2c([nH]c(-c3ccnc(N)c3)c2Nc2ccccc2)C1` (racemic) [Example 24, (7RS)-2-(2-Aminopyridin-4-yl)-7-methyl-3-(phenylamino)-5,6,7,8-tetrahydrocyclohepta[b]pyrrol-4(1H)-one] it is 25 nM.
To `CC(=O)Nc1cc(-c2[nH]c3c(c2Nc2ccccc2)C(=O)CCC(C)C3)ccn1` (racemic) [Example 25, N-{4-[(7RS)-3-Anilino-7-methyl-4-oxo-1,4,5,6,7,8-hexahydrocyclohepta[b]pyrrol-2-yl]pyridin-2-yl}acetamide] belongs 7 nM.
As to `CC1(C)[C@@H]2C[C@H]1C(=O)c1c2[nH]c(-c2ccncc2)c1Nc1ccccc1` (relative stereo) [Example 1, rel-(5R,7S)-6,6-Dimethyl-3-(phenylamino)-2-(pyridin-4-yl)-1,5,6,7-tetrahydro-4H-5,7-methanoindol-4-one], the half-inhibitory concentration (IC50) stood at 146 nM.
To `CC1(C)[C@@H]2C[C@H]1C(=O)c1c2[nH]c(-c2ccnc(N)c2)c1Nc1ccccc1` (relative stereo) [Example 2, rel-(5R,7S)-2-(2-Aminopyridin-4-yl)-6,6-dimethyl-3-(phenylamino)-1,5,6,7-tetrahydro-4H-5,7-methanoindol-4-one] belongs 1160 nM; to `CC(=O)Nc1cc(-c2[nH]c3c(c2Nc2ccccc2)C(=O)[C@@H]2C[C@H]3C2(C)C)ccn1` (relative stereo) [Example 5, N-4-[rel-(5R,7S)-6,6-Dimethyl-4-oxo-3-(phenylamino)-4,5,6,7-tetrahydro-1H-5,7-methanoindol-2-yl]pyridin-2-ylacetamide], 115 nM; to `CC1(C)[C@@H]2C[C@H]1C(=O)c1c2[nH]c(-c2ccnc(NC(=O)C3CC3)c2)c1Nc1ccccc1` (relative stereo) [Example 6, N-4-[rel-(5R,7S)-6,6-Dimethyl-4-oxo-3-(phenylamino)-4,5,6,7-tetrahydro-1H-5,7-methanoindol-2-yl]pyridin-2-ylcyclopropanecarboxamide], 63 nM.
Consider `COC(=O)Nc1cc(-c2[nH]c3c(c2Nc2ccccc2)C(=O)[C@@H]2C[C@H]3C2(C)C)ccn1` (relative stereo) [Example 7, methyl 4-[rel-(5R,7S)-6,6-Dimethyl-4-oxo-3-(phenylamino)-4,5,6,7-tetrahydro-1H-5,7-methanoindol-2-yl]pyridin-2-ylcarbamate], for which the IC50 amounted to 68 nM.
To `CCNC(=O)Nc1cc(-c2[nH]c3c(c2Nc2ccccc2)C(=O)[C@@H]2C[C@H]3C2(C)C)ccn1` (relative stereo) [Example 8, 1-4-[rel-(5R,7S)-6,6-Dimethyl-4-oxo-3-(phenylamino)-4,5,6,7-tetrahydro-1H-5,7-methanoindol-2-yl]pyridin-2-yl-3-ethylurea] belongs 375 nM; to `CC1(C)[C@@H]2C[C@H]1C(=O)c1c2[nH]c(-c2ccnc(NC(=O)NC3CC3)c2)c1Nc1ccccc1` (relative stereo) [Example 9, 1-cyclopropyl-3-4-[rel-(5R,7S)-6,6-Dimethyl-4-oxo-3-(phenylamino)-4,5,6,7-tetrahydro-1H-5,7-methanoindol-2-yl]pyridin-2-ylurea], 240 nM.
To `CC1(C)[C@@H]2C[C@H]1C(=O)c1c2[nH]c(-c2ccncc2F)c1Nc1ccccc1` (relative stereo) [Example 10, rel-(5R,7S)-2-(3-Fluoropyridin-4-yl)-6,6-dimethyl-3-(phenylamino)-1,5,6,7-tetrahydro-4H-5,7-methanoindol-4-one] belongs 35 nM; to `CN1C[C@H]2C(=O)c3c([nH]c(-c4ccncc4)c3Nc3ccccc3)C[C@H]2C1=O` (relative stereo) [Example 11, rel-(4aR,7aS)-6-Methyl-3-(phenylamino)-2-(pyridin-4-yl)-1,4a,5,6,7a,8-hexahydropyrrolo[3,4-f]indole-4,7-dione], 19 nM; to `O=C1c2c([nH]c(-c3ccncc3)c2Nc2ccccc2)C[C@H]2C[C@@H]12` (relative stereo) [Example 12, rel-(4aR,5aR)-3-(Phenylamino)-2-(pyridin-4-yl)-4a,5,5a,6-tetrahydrocyclopropa[f]indol-4(1H)-one], 7 nM.
With `CC(=O)Nc1cc(-c2[nH]c3c(c2Nc2ccccc2)C(=O)[C@@H]2C[C@@H]2C3)ccn1` (relative stereo) [Example 15, rel-(4aR,5aR)-N-4-[4-oxo-3-(Phenylamino)-1,4,4a,5,5a,6-hexahydrocyclopropa[f]indol-2-yl]pyridin-2-ylacetamide], the IC50 amounted to 6 nM.
For the compound `C[C@@]12Cc3[nH]c(-c4ccncc4)c(Nc4ccccc4)c3C(=O)[C@@H]1C2` (relative stereo) [Example 16, rel-(4aR,5aR)-5a-Methyl-3-(phenylamino)-2-(pyridin-4-yl)-4a,5,5a,6-tetrahydrocyclopropa[f]indol-4(1H)-one], the IC50 turned out to be 6 nM.
To `C[C@@]12Cc3[nH]c(-c4ccnc(NS(C)(=O)=O)c4)c(Nc4ccccc4)c3C(=O)[C@@H]1C2` (relative stereo) [Example 27, N-{4-[rel-(4aR,5aR)-3-Anilino-5a-methyl-4-oxo-1,4,4a,5,5a,6-hexahydrocyclopropa[f]indol-2-yl]pyridin-2-yl}methanesulfonamide] belongs 630 nM.
The figure for `C[C@@]12C[C@@H]1C(=O)c1c([nH]c(-c3ccnc(NC(=O)C4(F)CC4)c3)c1Nc1ccccc1)C2=O` (relative stereo) [Example 29, 1-Fluoro-N-4-[rel-(4aS,5aR)-5a-methyl-4,6-dioxo-3-(phenylamino)-1,4,4a,5,5a,6-hexahydrocyclopropa[f]indol-2-yl]pyridin-2-ylcyclopropanecarboxamide] is 133 nM.
